One test relates to MAO. It counts as biochemical, human. The protocol:
MAO activity was measured with [^14 C]tyramine as substrate using a modification of the method by Yu [P. H. YU, Neuromethods, Neurotransmitter Enzymes, A. A. Boulton, G. B. Baker and P. H. Yu, 235-272, Humana Press, Clifton, N.J. (1986))]. Membranes were incubated with [^14 C]tyramine (0.5 mM) at 21° C., pH 7.4 for 40 min. Enzyme activity was stopped by lowering pH to 1.0 with 2 M HCl. The radiolabeled products of MAO degradation (p-hydroxyphenylacetic acid and p-hydroxymandelic acid) were then extracted into toluene ethyl acetate by vortexing for 15 min and aliquots of the organic phase counted. Extraction was enhanced by the addition of a 1 mg/ml carrier concentration of both products and saturating concentration of NaCl.
(§1) Binding data were calculated as fmol bound ligand/mg protein. Protein was determined by the Lowry method. Binding constants were calculated by nonlinear curve fitting (Lundon Software) and the fit to a one or two site model was tested using two-way ANOVA. Relative MAO activity was calculated as CPM/mg protein/min or moles/mg protein/min.
Data are mean±SEM of 3 experiments. […] The data is depicted in FIG. 5.
Data are expressed as percent of maximum binding or MAO activity and represent the mean±SEM of 3 experiments. […] The data is depicted in FIG. 6.

For the next test, the system named is rat liver MAO B. As to conditions: cited from earlier work.
A further test relates to rat liver MAO A. The conditions noted are these: cited from earlier work.
Test [1] concerns the target T1, [^3 H]BFI binding sites (I2 binding site) (Homo sapiens, UniProt P27338).
T1 construct: Frozen sections of human cortex (Brodman's areas 8,9,10), human medulla; from tissue; host or cells: P2 membranes of human cortex (Brodmann areas 8, 9, 10) and human medulla (NRL)
T1 sequence (P27338 2-520 limits assumed): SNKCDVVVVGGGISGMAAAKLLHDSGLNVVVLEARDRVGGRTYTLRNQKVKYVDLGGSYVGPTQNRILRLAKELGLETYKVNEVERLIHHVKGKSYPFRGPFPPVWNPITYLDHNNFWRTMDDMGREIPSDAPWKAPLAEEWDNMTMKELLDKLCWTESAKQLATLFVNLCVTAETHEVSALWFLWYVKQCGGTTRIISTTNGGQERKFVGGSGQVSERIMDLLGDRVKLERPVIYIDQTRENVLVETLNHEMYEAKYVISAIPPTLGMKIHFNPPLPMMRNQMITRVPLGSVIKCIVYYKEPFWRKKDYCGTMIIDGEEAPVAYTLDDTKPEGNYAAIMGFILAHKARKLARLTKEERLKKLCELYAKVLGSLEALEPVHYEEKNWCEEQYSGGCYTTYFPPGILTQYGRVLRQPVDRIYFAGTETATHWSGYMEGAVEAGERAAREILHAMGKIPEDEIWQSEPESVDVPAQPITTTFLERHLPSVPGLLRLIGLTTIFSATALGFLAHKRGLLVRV
Kind of test: Ligand competition for [^3 H]BFI binding in human cortex. The conditions noted are these: for Affinity in competition for [^3 H]BFI binding: human brain. How it is done: (§2) Membrane fractions were isolated at 4° C. using differential centrifugation as follows: Homogenates were centrifuged at 500×g to remove nuclei and cell debris followed by 45,000×g to obtain the P2 membrane fraction. The P2 pellet was washed twice with 50 mM Tris-HCl buffer. Between washes the pellet resuspension was incubated for 30 min at 25° C. to allow dissociation of endogenous ligands from their receptors. The final pellet was resuspended in 50 mM Tris-HCl, pH 7.5, and stored at -70° C. until used.
as §1

In the next test the target is I2 sites. The conditions noted are these: read-out: KD of [^3 H]BFI binding; rabbit cortex, previously reported; cited from earlier work.
For test [2], the target named is [^3 H]BFI binding sites (I2 binding site). Kind of test: Ligand competition for [^3 H]BFI binding in human cortex. As to conditions: human cortex, 8 nM [^3 H]BFI, two-site fit. How it is done:
as §2, §1

“And” between values parts separate entries of the source, which are not always exact repeats. Identical values can stand only once. Like-named read-outs stand apart in the source and are kept apart here.

As for `N[C@@H]1C[C@H]1c1ccccc1` (relative stereo) [TCP, Tranylcypromine], the “Inhibition of MAO activity” value in the test with MAO (1 μM TCP preincubation (maximal potentiation of binding)) was determined as 80%. For the same compound, the “TCP concentration of maximal inhibition of MAO activity” value in the test on MAO (40 min preincubation, washed) came to 3 µM. Further, the “Maximal inhibition of MAO activity” value in the test with MAO (TCP concentrations >3 μM) stood at 95%. Further, the “Potentiation of BFI binding in guinea pig tissues by TCP” value in the test on BFI binding sites is “not seen”.
As for `c1ccc2oc(C3=NCCN3)cc2c1` [BFI, 2-(2-benzofuranyl)-2-imidazoline], the “Inhibition of rat liver MAO B” value in the test with rat liver MAO B is “inhibits”. Moreover, in the test on rat liver MAO A, the “Inhibition of rat liver MAO A” value is on record as “inhibits”.
The term Ki denotes a dissociation constant, usually derived from enzyme kinetics or from competition with a known ligand. In the case of `COC1(C2=NCCN2)COc2ccccc2O1` (stereo not drawn) [RX821002], in test [1], the Ki is 9400 ± 1800 nM and the “Affinity in competition for [^3 H]BFI binding” value (“Affinity in competition” below) is listed as “low affinity”.
By Kd is commonly meant the concentration at which binding is half-saturated. For the compound `c1ccc2oc(C3=NCCN3)cc2c1` [[^3 H]BFI, 2-(2-benzofuranyl)-2-imidazoline], on I2 sites, the Kd is 2.7 nM.
Turning to `N=C(N)NC(=O)c1nc(Cl)c(N)nc1N` [amiloride], in test [1], the “Affinity in competition” value is “low affinity”.
In the case of `c1ccc(C2CC2)c(OCC2=NCCN2)c1` [cirazoline], in test [1], affinity was put at a Ki of 13 ± 4.5 nM and the “Affinity in competition” value is “high affinity”.
With `Clc1cccc(Cl)c1N=C1NCCN1` [clonidine], in test [1], the “Affinity in competition” value is recorded as “low affinity”. Further, the Ki is 73.4 ± 24.6 nM in test [2] (read-out: Ki for competition of [^3 H]BFI binding, two-site model, first (high-affinity) value) and 86300 ± 11100 nM in test [2] (read-out: Ki for competition of [^3 H]BFI binding, two-site model, second (low-affinity) value).
`N=C(N)N/N=C/c1c(Cl)cccc1Cl` [guanabenz]: in test [1], the affinity corresponds to a Ki of 72.5 ± 24 nM and the “Affinity in competition” value is on record as “high affinity”.
`c1ccc2c(c1)OCC(C1=NCCN1)O2` (stereo not drawn) [idazoxan]: the “Inhibition of rat liver MAO A” value in the test on rat liver MAO A was “not”. The compound further returned a Ki in test [1] of 80.4 ± 17 nM.
Regarding `COc1nc(C)nc(Cl)c1N=C1NCCN1` [moxonidine], in test [1], the “Affinity in competition” value is “low affinity”.
Take `C#CCN(C)Cc1ccccc1` [pargyline]: the “Inhibition of basal MAO activity” value with MAO (preincubation with 10 μM pargyline, all durations (10, 30, 60 min)) was > 90% and 90%.

(Values after patent US5914235A (Eli Lilly and Company, priority 1997, dated 1999).)
